# Assays:
# [1] = target: alpha 1 adrenergic receptor; assay: Radioligand receptor binding assay, alpha 1 adrenergic
# male Long-Evans rats [2] = assay: Calorimetric acute feeding assay; type: in vivo, rat; settings: oral dose
# From the text: (§1) Animals: Obtain male Long-Evans rats (Harlan Sprague-Dawley, Indianapolis, Ind.) that are approximately one hundred-days old and have been maintained on a calorie rich diet since weaning (TD 95217, 40% calories from fat; Teklad, Madison, Wis.). House the rats individually with a 12 hr.:12 hr. light:dark cycle (lights on from about 22:00 hr. to about 10:00 hr.) and maintain rats on the same diet (TD 95217) with free access to water, for about 1-2 weeks to acclimate the rats to the environment. Dose rats orally with vehicle (10% acacia with 0.15% saccharin in water) once daily for at least 1 day (typically 1-2 days) to acclimate the rats to the procedures. Randomize the rats into groups so each group has similar mean body weights.
# Calorimetric Acute Feeding Assay: At approximately 8:00 hr. on the day of assay, weigh each rat and transfer to individual chambers of an open circuit calorimetry system (Oxymax, Columbus Instruments International Corporation; Columbus, Ohio), with free access to food (pre-weighed) and water, and begin measuring VO2 and VCO2. At approximately 10:00 hr., dose rats orally with vehicle or test compound, return them to their calorimetry chambers, and continue measuring VO2 and VCO2 at regular time intervals (approximately hourly). At approximately 8:00 hr. the following day, measure rat body weight and the remaining food, assuming the difference in weight of food is equal to the mass of food consumed. Calculate the 24 hr. energy expenditure (EE) and respiratory quotient (RQ) essentially as described in Chen, Y. and Heiman, M. L., Regulatory Peptide, 92:113-119 (2000). […]
# Calculate EE as the product of calorific value (CV) and VO2 per body weight (kg); where CV=3.815+1.232*RQ, and RQ is the ratio of CO2 produced (VCO2) to O2 consumed (VO2). Caloric intake is calculated as (mass of 24 hr. food intake in grams)×(physiological fuel value of the diet in kilocalorie/g) per kg of body weight.
# male Long-Evans rats [3] = assay: Chronic feeding assay; type: in vivo, rat
# From the text: as §1
# Chronic Feeding Assay: At between approximately 8:00 hr. and 10:00 hr. on day one of the assay, weigh and orally dose each rat with vehicle or test compound and return the animal to its home cage, with free access to food (pre-weighed) and water. For each of days 2-15, at between approximately 8:00 hr. and 10:00 hr., measure rat body weight and the weight of food consumed in the last 24 hr. period, and administer daily oral dose of test compound or vehicle. On days −2 and 15 measure total fat mass and lean mass by nuclear magnetic resonance (NMR) using an EchoMRI™ system (Echo Medical Systems, Houston Tex.). (See Frank C. Tinsley, Gersh Z. Taicher, and Mark L. Heiman, “Evaluation of a New Quantitative Magnetic Resonance (QMR) Method for Mouse Whole Body Composition Analysis”, Obesity Research, submitted May 1, 2003.)
# male NIH Swiss mice = assay: Marble burying assay (with rotorod); type: in vivo, mouse
# From the text: Marble burying in mice has been used to model anxiety disorders including obsessive-compulsive disorders (OCD) due to ethological study of the behavior (e.g. Gyertyan I. “Analysis of the marble burying response: Marbles serve to measure digging rather than evoke burying”, Behavioural Pharmacology 6: 24-31, (1995)) and due to the pharmacological effects of clinical standards (c.f., Njung′E K. Handley S L. “Evaluation of marble-burying behavior as a model of anxiety”, Pharmacology, Biochemistry & Behavior. 38: 63-67, (1991)); Borsini F., Podhorna J., and Marazziti, D. “Do animal models of anxiety predict anxiolytic effects of antidepressants?”, Psychopharmacology 163: 121-141, (2002)). Thus, drugs used in the treatment of generalized anxiety in humans (e.g. benzodiazepines) as well as compounds used to treat OCD (e.g. SSRIs like fluoxetine) decrease burying.
# House experimentally-naïve male, NIH Swiss mice (Harlan Sprague-Dawley, Indianapolis, Ind.) weighing between 28-35 g in groups of 12 for at least three days prior to testing in a vivarium with 12 hr. light and dark cycles. Conduct experiments during the light cycle in a dimly lit experimental testing room. Dose mice with vehicle or compound and, after a specified pretreatment interval (generally 30 min.), place each mouse individually on a rotorod (Ugo Basile 7650) operating at a speed of 6 revolutions/min. and observe for falling. After 2 min. on the rotorod, place the mice individually in a 17×28×12 cm high plastic tub with 5 mm sawdust shavings on the floor that are covered with 20 blue marbles (1.5 cm diameter) placed in the center. After 30 min., count the number of marbles buried (⅔ covered with sawdust). Assess the compound's effect on marble burying with Dunnett's test and the effect on rotorod performance by Fisher's exact test.
# Clinically effective standard compounds suppress marble burying at doses that are devoid of motor-impairing effects as measured on the rotorod. […]
# [4] = daily oral dose days 1-15, compared to control animals
compound,measurement,setting,value
"FC(F)(F)CNc1c(Cl)ccc2c1CCNCC2.O=C(O)CCC(=O)O [Example 2, 7-Chloro-6-(2,2,2-trifluoroethylamino)-2,3,4,5-tetrahydro-1H-benzo[d]azepine Succinic Acid Salt]",IC50,[1],> 3000 nM
same,24 hr. food intake,"male Long-Evans rats [2]; acute assays, rats on calorie rich diet",significantly reduce 24 hr. food intake
same,respiratory quotient (RQ),"male Long-Evans rats [2]; acute, 24 hr. calorimetry",dose-dependently reduced RQ
same,energy expenditure during the light photoperiod,"male Long-Evans rats [2]; acute, indicative of resting metabolic rate",without significantly changing
same,lean body mass,"male Long-Evans rats [3]; NMR, days -2 and 15",not changed
same,cumulative body weight change,male Long-Evans rats [3]; [4],significantly decrease
same,cumulative food intake,male Long-Evans rats [3]; [4],significantly decrease
same,source of the decrease in body weight (fat mass by NMR),male Long-Evans rats [3]; days -2 and 15,loss of adipose tissue
same,reduction of burying behavior with co-administration of the 5-HT2C antagonist,male NIH Swiss mice,blocked
same,marble burying behavior (relative to rotorod performance),male NIH Swiss mice; 30 min. burying session,reduce burying behavior

# Source: US20060264418A1, “6-(2,2,2-Trifluoroethylamino-7-chloro-2,3,4,5-tetrahydro-1h-benzo[d] azephine as a 5-ht2c receptor agonist” (priority 2003, published 2006)
